Measured values as given in patent EP1568373A2, “Inducing cellular immune responses to HER2/neu using peptide and nucleic acid compositions” (priority 1999, dated 2001).
One block for each compound: values may come before it. Where no end group is shown, it is not given here.

Columns and labels:
DRB1*0101 (DR1) = DRB1*0101 (DR1) (Homo sapiens, UniProt P01903+P01911, A100R/D57E/F55L/F60I/F76Y/I96L/L162R/M171V/P40L/Q125E/R42F/V115G/Y59C); experiment: HLA class II binding assay, purified HLA molecules; details: Her2/neu DR supertype primary binding, Table XXVIII
A*0101 = A*0101 (Homo sapiens, UniProt P04439, A114D/A174V/A182V/D101N/D185E/E176A/E190D/L180R/Q94H/R68K/S129P/T187R/V100A/V91M/W191G); experiment: HLA class I binding assay, purified HLA molecules, inhibition of 125I-radiolabeled probe peptide; details: HLA-A1 Motif-Bearing Peptides, Table XXV
A*2402 = A*2402 (Homo sapiens, UniProt P04439, D101N/D140Y/D185E/E176V/E190D/F33S/G103R/G107R/I119L/I121M/I306V/K335N/L105A/L180Q/L300P/N151K/N90K/Q86E/Q94H/R106L/R138H/R89G/T104I/T345S/V100E/W191G/Y123F); experiment: HLA class I binding assay, purified HLA molecules; details: HLA-A24 Motif-Bearing Peptides, Table XXVI
DRB1*0401 (DR4w4) = DRB1*0401 (DR4w4) (Homo sapiens, UniProt P01903+P01911, A100K/A169T/F76Y/I96L/K127E/L162R/M171V/N62H/P40V/Q125Y/R42H/S133A/S149N/S66Y/V115G/V209L/W38E); experiment: HLA class II binding assay, purified HLA molecules; details: Her2/neu DR supertype primary binding, Table XXVIII
DRB1*0701 (DR7) = DRB1*0701 (DR7) (Homo sapiens, UniProt P01903+P01911, A100R/A102G/A103Q/D57E/D86V/E43K/F76Y/K127E/L162R/M171V/P40G/Q125H/Q99D/R33Q/R42Y/R54Q/S133A/S66F/T210M/V115G/Y107V/Y59L/Y89S); experiment: HLA class II binding assay, purified HLA molecules; details: Her2/neu DR supertype primary binding, Table XXVIII

Compound: VFETLEEITGY [Her2/neu.399]
- IC50 (A*0101): 5560 nM

Compound: GTDLFEDNY [Her2/neu.104.D3]
- IC50 (A*0101): 0.9 nM

Compound: CC[C@H](C)[C@H](NC(=O)CNC(=O)[C@@H](NC(=O)[C@@H](NC(=O)[C@H](C)NC(=O)[C@H](CO)NC(=O)[C@@H](NC(=O)[C@@H](NC(=O)[C@H](CO)NC(=O)[C@@H](NC(=O)[C@@H](N)CC(C)C)[C@@H](C)O)[C@@H](C)CC)[C@@H](C)CC)C(C)C)C(C)C)C(=O)N[C@@H](CC(C)C)C(=O)N[C@@H](CC(C)C)C(=O)N[C@H](C(=O)N[C@H](C(=O)O)C(C)C)C(C)C [Her2/neu.651]
- IC50 (DRB1*0101 (DR1)): 26 nM

Compound: DMKLRLPASPETHLD [Her2/neu.30]
- IC50 (DRB1*0101 (DR1)): 5000 nM

Compound: LYISAWPDSL [Her2/neu.410]
- IC50 (A*2402): 143 nM

Compound: CC[C@H](C)[C@H](NC(=O)[C@@H]1CCCN1C(=O)[C@H](CCSC)NC(=O)[C@H](Cc1ccc(O)cc1)NC(=O)[C@@H](N)CO)C(=O)N[C@@H](Cc1c[nH]c2ccccc12)C(=O)N[C@@H](CCCCN)C(=O)N[C@@H](Cc1ccccc1)C(=O)O [Her2/neu.609]
- IC50 (A*2402): 38 nM

Compound: ETELVEPLTPSGAMP [Her2/neu.693]
- IC50 (DRB1*0101 (DR1)): 833 nM

Compound: ETHLDMLRHLY [Her2/neu.40]
- IC50 (A*0101): 89 nM

Compound: AYSLTLQGL [Her2/neu.440]
- IC50 (A*2402): 92 nM

Compound: LYISAWPDSF [Her2/neu,410.F10]
- IC50 (A*2402): 10 nM

Compound: GTDMKLRLPY [Her2/neu.28.Y10]
- IC50 (A*0101): 50 nM

Compound: VEPLTPSGAMPNQAQ [Her2/neu.697]
- IC50 (DRB1*0101 (DR1)): > 6250 nM

Compound: AYSLTLQGF [Her2/neu.440.F9]
- IC50 (A*2402): 52 nM

Compound: CC(C)C[C@H](NC(=O)[C@H](C)NC(=O)[C@H](Cc1ccc(O)cc1)NC(=O)[C@H](CC(N)=O)NC(=O)[C@H](CC(=O)O)NC(=O)[C@H](CCC(=O)O)NC(=O)[C@H](Cc1ccccc1)NC(=O)[C@H](CC(C)C)NC(=O)[C@H](CCC(N)=O)NC(=O)[C@@H](N)[C@@H](C)O)C(=O)N[C@@H](C)C(=O)N[C@H](C(=O)N[C@@H](CC(C)C)C(=O)N[C@@H](CC(=O)O)C(=O)N[C@@H](CC(N)=O)C(=O)O)C(C)C [Her2/neu.105]
- IC50 (DRB1*0701 (DR7)): 1560 nM
- IC50 (DRB1*0101 (DR1)): 94 nM

Compound: HTDMLRHLY [Her2/neu.42.T2]
- IC50 (A*0101): 1.9 nM

Compound: TYLPTNASF [Her2/neu.63.F9]
- IC50 (A*2402): 44 nM

Compound: CYGLGMEHF [Her2/neu.342.F9]
- IC50 (A*2402): 164 nM

Compound: CC[C@H](C)[C@H](NC(=O)CNC(=O)[C@@H](NC(=O)[C@@H](NC(=O)[C@H](C)NC(=O)[C@H](CO)NC(=O)[C@@H](NC(=O)[C@@H](NC(=O)[C@H](CO)NC(=O)[C@@H](NC(=O)[C@H](CC(C)C)NC(=O)[C@@H]1CCCN1C(=O)[C@H](CO)NC(=O)[C@H](C)N)[C@@H](C)O)[C@@H](C)CC)[C@@H](C)CC)C(C)C)C(C)C)C(=O)N[C@@H](CC(C)C)C(=O)O [Her2/neu.648]
- IC50 (DRB1*0101 (DR1)): 56 nM

Compound: LLVVVLGVVFGILIK [Her2/neu.662]
- IC50 (DRB1*0101 (DR1)): > 6250 nM

Compound: CC[C@H](C)[C@H](NC(=O)[C@H](CCCCN)NC(=O)[C@H](CCCCN)NC(=O)[C@@H](N)CS)C(=O)N[C@@H](Cc1ccccc1)C(=O)NCC(=O)N[C@@H](CO)C(=O)N[C@@H](CC(C)C)C(=O)N[C@@H](C)C(=O)N[C@@H](Cc1ccccc1)C(=O)N[C@@H](CC(C)C)C(=O)N1CCC[C@H]1C(=O)N[C@@H](CCC(=O)O)C(=O)N[C@@H](CO)C(=O)N[C@@H](Cc1ccccc1)C(=O)O [Her2/neu.367]
- IC50 (DRB1*0101 (DR1)): 21 nM

Compound: ETMPNPEGRY [Her2/neu.280.T2]
- IC50 (A*0101): 3.9 nM

Compound: CC(C)[C@H](N)C(=O)N[C@H](C(=O)N[C@@H](C)C(=O)N[C@@H](CS)C(=O)N1CCC[C@H]1C(=O)N[C@@H](Cc1ccc(O)cc1)C(=O)N[C@@H](CC(N)=O)C(=O)N[C@@H](Cc1ccc(O)cc1)C(=O)O)[C@@H](C)O [Her2/neu.296]
- IC50 (A*0101): 250 nM

Now from value to compound:

- IC50 (DRB1*0101 (DR1)): 58 nM
Compound: CC[C@H](C)[C@H](NC(=O)CNC(=O)[C@H](CC(=O)O)NC(=O)[C@H](Cc1ccc(O)cc1)NC(=O)[C@@H]1CCCN1C(=O)[C@H](CCCCN)NC(=O)[C@H](C)NC(=O)CNC(=O)[C@H](Cc1ccccc1)NC(=O)[C@@H](NC(=O)[C@H](CCSC)NC(=O)[C@H](CC(C)C)NC(=O)[C@H](CCC(=O)O)NC(=O)[C@H](Cc1c[nH]c2ccccc12)NC(=O)[C@@H](N)C(C)C)[C@@H](C)O)C(=O)O [Her2/neu.912]

- IC50 (DRB1*0101 (DR1)): 100 nM
- IC50 (DRB1*0401 (DR4w4)): 196 nM
Compound: CSCC[C@H](NC(=O)[C@@H](NC(=O)[C@H](Cc1ccc(O)cc1)NC(=O)[C@H](C)NC(=O)[C@H](CCC(=O)O)NC(=O)[C@@H](N)CC(=O)O)C(C)C)C(=O)N[C@@H](C)C(=O)NCC(=O)N[C@H](C(=O)NCC(=O)N[C@@H](CO)C(=O)N1CCC[C@H]1C(=O)N[C@@H](Cc1ccc(O)cc1)C(=O)N[C@H](C(=O)N[C@@H](CO)C(=O)O)C(C)C)C(C)C [Her2/neu.769]

- IC50 (DRB1*0701 (DR7)): 2500 nM
- IC50 (DRB1*0101 (DR1)): 22 nM
Compound: CSCC[C@H](NC(=O)[C@H](CC(C)C)NC(=O)[C@H](CCC(N)=O)NC(=O)[C@@H](NC(=O)[C@@H](NC(=O)[C@H](CC(C)C)NC(=O)[C@H](CCC(N)=O)NC(=O)[C@@H](NC(=O)[C@@H](N)[C@@H](C)O)C(C)C)C(C)C)[C@@H](C)O)C(=O)N1CCC[C@H]1C(=O)N[C@@H](Cc1ccc(O)cc1)C(=O)NCC(=O)N[C@@H](CS)C(=O)N[C@@H](CC(C)C)C(=O)N[C@@H](CC(C)C)C(=O)O [Her2/neu.793]

- IC50 (DRB1*0701 (DR7)): 208 nM
- IC50 (DRB1*0101 (DR1)): 6 nM
Compound: CC[C@H](C)[C@H](NC(=O)[C@H](CCC(N)=O)NC(=O)[C@H](CCSC)NC(=O)[C@H](CS)NC(=O)[C@H](Cc1c[nH]c2ccccc12)NC(=O)[C@H](CC(N)=O)NC(=O)[C@H](CC(C)C)NC(=O)[C@@H](N)CC(C)C)C(=O)N[C@@H](C)C(=O)N[C@@H](CCCCN)C(=O)NCC(=O)N[C@@H](CCSC)C(=O)N[C@@H](CO)C(=O)N[C@@H](Cc1ccc(O)cc1)C(=O)N[C@@H](CC(C)C)C(=O)O [Her2/neu.822]

- IC50 (DRB1*0401 (DR4w4)): 6160 nM
Compound: CC[C@H](C)[C@H](NC(=O)[C@H](CCC(=O)O)NC(=O)[C@@H](N)CCCCN)C(=O)N[C@@H](CC(C)C)C(=O)N[C@@H](CC(=O)O)C(=O)N[C@@H](CCC(=O)O)C(=O)N[C@@H](C)C(=O)N[C@@H](Cc1ccc(O)cc1)C(=O)N[C@H](C(=O)N[C@@H](CCSC)C(=O)N[C@@H](C)C(=O)NCC(=O)N[C@H](C(=O)NCC(=O)N[C@@H](CO)C(=O)O)C(C)C)C(C)C [Her2/neu.765]

- IC50 (A*2402): 24 nM
Compound: AYPDSLPDF [Herw/neu414.Y2F9]

- IC50 (DRB1*0401 (DR4w4)): 790 nM
Compound: CC[C@H](C)[C@H](NC(=O)[C@H](CCSC)NC(=O)[C@H](Cc1c[nH]c2ccccc12)NC(=O)[C@H](CS)NC(=O)[C@H](CCCCN)NC(=O)[C@@H](NC(=O)[C@H](CCSC)NC(=O)[C@@H](NC(=O)[C@H](CCSC)NC(=O)[C@H](Cc1ccc(O)cc1)NC(=O)[C@@H](NC(=O)[C@@H](N)CC(=O)O)C(C)C)[C@@H](C)CC)C(C)C)C(=O)N[C@@H](CC(=O)O)C(=O)N[C@@H](CO)C(=O)N[C@@H](CCC(=O)O)C(=O)O [Her2/neu.950]

- IC50 (DRB1*0101 (DR1)): 79 nM
Compound: CC[C@H](C)[C@H](NC(=O)[C@H](C)NC(=O)[C@@H](NC(=O)[C@@H]1CCCN1C(=O)[C@@H](NC(=O)[C@H](CCCCN)NC(=O)[C@@H](NC(=O)[C@H](CC(N)=O)NC(=O)[C@H](CCC(=O)O)NC(=O)CN)C(C)C)[C@@H](C)CC)C(C)C)C(=O)N[C@@H](CCCCN)C(=O)N[C@H](C(=O)N[C@@H](CC(C)C)C(=O)N[C@@H](CCCNC(=N)N)C(=O)N[C@@H](CCC(=O)O)C(=O)O)C(C)C [Her2/neu.743]

- IC50 (DRB1*0101 (DR1)): 1040 nM
Compound: ITDFGLARLLDIDET [Her2/neu.861]

- IC50 (DRB1*0101 (DR1)): 7140 nM
Compound: QPDVRPQPPSPREGP [Her2/neu.1142]

- IC50 (DRB1*0701 (DR7)): 1470 nM
Compound: CSCC[C@H](NC(=O)[C@H](CC(C)C)NC(=O)[C@H](CCC(=O)O)NC(=O)[C@H](Cc1c[nH]c2ccccc12)NC(=O)[C@@H](NC(=O)[C@@H](NC(=O)[C@@H](NC(=O)CN)C(C)C)[C@@H](C)O)C(C)C)C(=O)N[C@H](C(=O)N[C@@H](Cc1ccccc1)C(=O)NCC(=O)N[C@@H](C)C(=O)N[C@@H](CCCCN)C(=O)N1CCC[C@H]1C(=O)N[C@@H](Cc1ccc(O)cc1)C(=O)O)[C@@H](C)O [Her2/neu.909]
